Drawing on PubChem BioAssay (NCI), this text covers TGI for seven compounds.

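Exposure lasted 48 hours, with cells grown in 96-well plates and compounds tested at five concentrations. Definition used: TGI = concentration required for complete inhibition of growth.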 *1 amine or outer side, *2 acyl side, *3 side chain or, on linkers, in order; H or OH if unused. Where a SMILES comes first, the peptide text is derived from it. [ ]: non-standard residue; d: D form. The star is where a group is joined. X31 = CC(=O)N(C)SCC(N[*:1])C(=O)[*:2]; X47 = CC(=O)N(C)SCC(N*)/C(O)=N\O; Cbz = O=C(OCc1ccccc1)*; Bn = c1ccc(C*)cc1; For = O=C* A value given as a limit tells only on which side of the number the result lay.

Among the test systems are 786-0 renal; A549 NSCLC; CCRF-CEM leukemia; COLO 205 colon; HL-60(TB) leukemia; HT29 colon; IGROV1 ovarian; LOX IMVI melanoma; MALME-3M melanoma; MDA-MB-435; MDA-N; MOLT-4 leukemia; NCI-H226 lung; NCI-H23 lung; NCI-H522 lung; NCI/ADR-RES ovarian; PC-3 prostate; SN12C renal; SNB-75 CNS; SW-620 colon.
Experiment in all cases: inhibition of tumour cell growth, NCI panel, 48 h

Take `O=C1c2c(Cl)c(Cl)c(Cl)c(Cl)c2C(=O)N1CCN(c1c(Cl)ssc1=O)c1c(Cl)ssc1=O`: the TGI is 32.8 µM in the test with 786-0 renal; above 100 µM with A549 NSCLC; 72 µM in the test on CCRF-CEM leukemia; 35 µM with COLO 205 colon; above 100 µM in the test on HL-60(TB) leukemia; 35.6 µM with HT29 colon. Also, the TGI in the test with IGROV1 ovarian was above 100 µM; in the test with LOX IMVI melanoma, 48.5 µM; in the test on MALME-3M melanoma, 53.6 µM; in the test with MDA-MB-435, 45.4 µM; with MDA-N, 33.3 µM; with MOLT-4 leukemia, 37.7 µM. Further, the TGI in the test with NCI-H226 lung is above 100 µM; in the test on NCI-H23 lung it was above 100 µM; in the test with NCI-H522 lung it was 57.8 µM; in the test with NCI/ADR-RES ovarian, above 100 µM; with PC-3 prostate it was 56.8 µM; with SN12C renal, 47.7 µM. The TGI is above 100 µM in the test with SNB-75 CNS and 61.9 µM with SW-620 colon.
Regarding `CC(=O)N(C)SCC(NC(=O)C(Cc1ccccc1)NC(=O)OCc1ccccc1)C(=O)NC(Cc1ccccc1)C(=O)NC(Cc1cn(C=O)c2ccccc12)C(=O)NC(CCCCNC(=O)OCc1ccccc1)C(=O)NC(C(=O)NC(CSN(C)C(C)=O)/C(O)=N\O)C(C)OCc1ccccc1` (stereo not given) (Cbz-F[X31]FW(For)K(Cbz)T(Bn)-X47; configuration not given here), the TGI with 786-0 renal, in the test with A549 NSCLC, with CCRF-CEM leukemia, in the test on COLO 205 colon, in the test with HL-60(TB) leukemia and with HT29 colon was above 100 µM in each case. For the same compound, the TGI with IGROV1 ovarian, with LOX IMVI melanoma, in the test with MALME-3M melanoma, with MDA-MB-435, with MDA-N and with MOLT-4 leukemia was above 100 µM throughout. Besides, the TGI in the test on NCI-H226 lung, in the test on NCI-H23 lung, with NCI-H522 lung, in the test with NCI/ADR-RES ovarian, with PC-3 prostate and in the test on SN12C renal was above 100 µM throughout. Also, the TGI in the test on SNB-75 CNS and with SW-620 colon was above 100 µM each time.
For the compound `Cc1c2c(c(C)n1-c1ccccc1)C(=O)N(CCCCN1CCN(c3ccccc3)CC1)C2=O`, the TGI in the test on 786-0 renal is 19 µM; in the test on A549 NSCLC, above 100 µM; in the test on CCRF-CEM leukemia, 26.1 µM; in the test on COLO 205 colon it was 21.7 µM; in the test with HL-60(TB) leukemia, 17.2 µM; with HT29 colon it was 10.1 µM. Further, the TGI is above 100 µM in the test on IGROV1 ovarian; 23.5 µM in the test on LOX IMVI melanoma; 20.9 µM in the test with MALME-3M melanoma; 40.8 µM in the test with MDA-MB-435; 31.2 µM in the test with MDA-N; 26.2 µM in the test with MOLT-4 leukemia. For the same compound, the TGI amounted to 40.3 µM in the test on NCI-H226 lung; 48.5 µM in the test on NCI-H23 lung; 39.4 µM in the test with NCI-H522 lung; 83.9 µM with NCI/ADR-RES ovarian; 39.5 µM with PC-3 prostate; 43.9 µM in the test with SN12C renal. The TGI in the test on SNB-75 CNS and in the test on SW-620 colon was above 100 µM throughout.
On to `CC1=NCCN=C(C)C1N=Nc1ccc2nc(C)[nH]c2c1`, for which the TGI in the test on 786-0 renal was found to be 33.5 µM; with A549 NSCLC it was 19.6 µM; in the test on CCRF-CEM leukemia, 16.8 µM; in the test on COLO 205 colon it was 53.6 µM; in the test on HL-60(TB) leukemia, 9.33 µM; in the test on HT29 colon, 50.9 µM. Moreover, the TGI was determined as 70.7 µM in the test on IGROV1 ovarian; 98.8 µM with LOX IMVI melanoma; 41.5 µM in the test on MALME-3M melanoma; 22.3 µM with MDA-MB-435; 29.3 µM in the test with MDA-N; 23.6 µM in the test with MOLT-4 leukemia. The TGI in the test on NCI-H226 lung stood at 44.1 µM; in the test with NCI-H23 lung, 44.2 µM; in the test on NCI-H522 lung it was 61.8 µM; in the test on NCI/ADR-RES ovarian it was 47.9 µM; in the test with PC-3 prostate, 22.3 µM; in the test with SN12C renal, 30.9 µM. Besides, the figures for the TGI in the test on SNB-75 CNS and with SW-620 colon were 33.1 µM and 33.4 µM, respectively.
As for `CC1(C)[C@H](C(=O)O)N2C(=O)[C@@H](NS(=O)(=O)c3ccc([N+](=O)[O-])cc3)[C@H]2S1(=O)=O`, the TGI in the test on 786-0 renal, with A549 NSCLC, with CCRF-CEM leukemia, in the test on COLO 205 colon, in the test on HL-60(TB) leukemia and in the test with HT29 colon was above 100 µM each time. Further, the TGI with IGROV1 ovarian, in the test with LOX IMVI melanoma, with MALME-3M melanoma, in the test on MDA-MB-435, in the test with MDA-N and in the test on MOLT-4 leukemia was above 100 µM each time. Further, the TGI with NCI-H226 lung, with NCI-H23 lung, in the test on NCI-H522 lung, with NCI/ADR-RES ovarian, with PC-3 prostate and with SN12C renal was above 100 µM each time. The TGI in the test with SNB-75 CNS and in the test with SW-620 colon was above 100 µM throughout.
As for `CC1CC(C)C(O)C(C2CC(CC(=O)NC3CCCCC3)CC(=O)O2)C1` (stereo not given), the TGI in the test on 786-0 renal, in the test with A549 NSCLC, in the test on CCRF-CEM leukemia, in the test on COLO 205 colon, in the test on HL-60(TB) leukemia and with HT29 colon was above 100 µM each time. Also, the TGI with IGROV1 ovarian, in the test with LOX IMVI melanoma, in the test on MALME-3M melanoma, in the test with MDA-MB-435, in the test with MDA-N and with MOLT-4 leukemia was above 100 µM throughout. The TGI in the test on NCI-H226 lung, in the test with NCI-H23 lung, with NCI-H522 lung, in the test with NCI/ADR-RES ovarian, with PC-3 prostate and with SN12C renal was above 100 µM throughout. For the same compound, the TGI in the test on SNB-75 CNS and in the test on SW-620 colon was above 100 µM throughout.
For the compound `Cc1ccc(C2=Nc3cc(C)c(Cl)cc3S(=O)(=O)NN2)cc1`, the TGI in the test with 786-0 renal is above 100 µM; with A549 NSCLC it was above 100 µM; in the test on CCRF-CEM leukemia, above 100 µM; with COLO 205 colon it was above 100 µM; in the test with HL-60(TB) leukemia it was 90.7 µM; in the test with HT29 colon, above 100 µM. Further, the TGI with IGROV1 ovarian, with LOX IMVI melanoma, with MALME-3M melanoma, in the test on MDA-MB-435, with MDA-N and with MOLT-4 leukemia was above 100 µM each time. Also, the TGI with NCI-H226 lung, in the test with NCI-H23 lung, in the test with NCI-H522 lung, with NCI/ADR-RES ovarian, with PC-3 prostate and with SN12C renal was above 100 µM throughout. The TGI in the test with SNB-75 CNS and with SW-620 colon was above 100 µM each time.
